{"source": "patent US20160199320A1", "about": "“Ophthalmic Treatments” (Optosolve Research & Development Limited, priority 2011, published 2016)", "key": {"undamaged eye": {"test_system": "undamaged eye", "conditions": "topically applied to an undamaged eye; cited from earlier work"}, "eye [1]": {"test_system": "eye", "test": "ninth example: tramadol eye-drops in blepharitis with reduced tear break-up time", "format": "in vivo, human", "conditions": "eye-drops containing 1.0% w/v tramadol", "excerpt": "In a ninth example, a middle-aged person with blepharitis and no corneal staining but a reduced tear break-up time was given eye-drops containing 1.0% w/v tramadol."}, "eye [2]": {"test_system": "eye", "test": "eighth example: tramadol eye-drops in dry eyes with unstable tear films, tear osmolarity and pain", "format": "in vivo, human", "conditions": "for pain: dry eye", "excerpt": "In an eighth example, a person presented with dry eyes and unstable tear films, typical symptoms of “dry eye”. The patient's tear osmolarity improved, after use of an eye-drop containing 0.5% w/v tramadol in one eye, from 312 milliOsmoles before instillation of the eye drop to 299 milliOsmoles one hour after instillation."}, "eye [3]": {"test_system": "eye", "test": "pilocarpine drops for constriction of the pupil, with or without tramadol drops", "format": "in vivo", "experimental": "In a first example, an eye was treated with pilocarpine drops to cause constriction of the pupil (in this particular example, as part of an ophthalmic diagnostic procedure, although pilocarpine is also be used therapeutically). Such drops can cause significant discomfort and excessive tear formation, possibly washing pilocarpine out of the eye before it could take effect. […] This implies that the tramadol may well be improving the absorption of other drugs."}, "eye [4]": {"test_system": "eye", "test": "fourth example: patient suffering from dry-eye, tramadol eye-drops, artificial tears, or combination", "format": "in vivo, human", "conditions": "topical", "excerpt": "In a fourth example, administration of the tramadol-containing eye-drop formulation of the third example to a patient suffering from “dry-eye” reduced the resultant discomfort as expected. […] However, the discomfort remained, which for many patients would lead to actions such as rubbing the affected eye, counteracting much of the improvement."}, "eye [5]": {"test_system": "eye", "test": "eye-drop formulation with tramadol in the left eye of a healthy subject, sensation in the eye", "format": "in vivo, human", "conditions": "0.5% w/v tramadol eye-drop", "experimental": "In a third example, a conventional ophthalmic eye-drop formulation was made up, but with the addition of 0.5% w/v tramadol. This formulation was administered to the left eye of a healthy subject. […] Sensation in the right eye remained normal."}, "eye [6]": {"test_system": "eye", "test": "sixth example: tramadol eye-drops in a painful infection of the eye", "format": "in vivo, human", "excerpt": "In a sixth example, an infection of the subject's eye required treatment with antibiotics. However, the subject was unable to open the respective eyelid due to the consequent pain."}, "eye [7]": {"test_system": "eye", "test": "ciclosporin composition with added tramadol, post-operative treatment following a corneal transplant", "format": "in vivo", "conditions": "addition of 0.5% w/v tramadol to the composition", "excerpt": "In a second example, a composition containing ciclosporin would normally be administered to the eye in post-operative treatment following a corneal transplant, to avoid transplant rejection. However, this would lead to significant additional levels of discomfort in the eye."}, "eye [8]": {"test_system": "eye", "test": "seventh example: tramadol eye-drops in allergic eye disease", "format": "in vivo, human", "excerpt": "In a seventh example, a person presented with an allergic eye disease, resulting in significant prolonged itchiness."}, "[9]": {"conditions": "middle-aged person with blepharitis"}, "[10]": {"conditions": "drops containing tramadol administered before or in conjunction with the pilocarpine drops"}, "[11]": {"conditions": "tramadol 0.5% w/v where present"}, "[12]": {"conditions": "eye-drop formulation comprising 0.5% w/v tramadol"}}, "data": [{"smiles": "CN1CC[C@]23c4c5ccc(O)c4O[C@H]2[C@@H](O)C=C[C@H]3[C@H]1C5", "note": "[morphine]", "values": [{"measurement": "analgesic effect", "setting": "undamaged eye", "value": "very little or no analgesic effect"}]}, {"smiles": "COc1cccc(C2(O)CCCCC2CN(C)C)c1", "note": "(centres unmarked) [tramadol]", "values": [{"measurement": "blepharitis", "setting": "eye [1]; middle-aged male", "value": "improved"}, {"measurement": "irritable symptoms", "setting": "eye [1]; [9]", "value": "improvement"}, {"measurement": "tear break-up time", "setting": "eye [1]; [9]", "value": "improved, and so did the tear break-up time"}, {"measurement": "pain", "setting": "eye [2]; eye-drop containing 0.5% w/v tramadol", "value": "reduced"}, {"measurement": "pain", "setting": "eye [2]; eye-drop containing 1.0% w/v tramadol", "value": "reduced the patient's pain further"}, {"measurement": "tear osmolarity", "setting": "eye [2]; one hour after instillation of eye-drop containing 0.5% w/v tramadol, 312 milliOsmoles before instillation, person with dry eye", "value": 299, "unit": "milliOsmoles"}, {"measurement": "discomfort caused by pilocarpine drops", "setting": "eye [3]; [10]", "value": "greatly reduced"}, {"measurement": "tear formation caused by pilocarpine drops", "setting": "eye [3]; [10]", "value": "greatly reduced"}, {"measurement": "blinking", "setting": "eye [4]; tramadol 0.5% w/v", "value": "reduction in blinking"}, {"measurement": "discomfort / pain", "setting": "eye [4]; [11]", "value": "reduced"}, {"measurement": "dryness / lubrication of the eye", "setting": "eye [4]; [11]", "value": "dryness remained"}, {"measurement": "physical signs (symptoms and signs)", "setting": "eye [4]; [11]", "value": "did not improve"}, {"measurement": "duration of numbing effect", "setting": "eye [5]", "value": "at least 110 minutes"}, {"measurement": "side-effects", "setting": "eye [5]", "value": "No side-effects were noted"}, {"measurement": "time to noticeably reduced sensation in the eye after instillation", "setting": "eye [5]", "value": "≤ 3", "unit": "min"}, {"measurement": "resolution of the infection", "setting": "eye [6]; 0.5% w/v tramadol followed by antibiotics", "value": "more rapidly than would have been expected"}, {"measurement": "discomfort", "setting": "eye [6]; [12]", "value": "rapidly reduced"}, {"measurement": "opening of the eyelid", "setting": "eye [6]; [12]", "value": "permitting opening of the eyelid"}, {"measurement": "vision in the treated eye", "setting": "eye [6]; [12]", "value": "allowed reasonable vision"}, {"measurement": "effectiveness of the ciclosporin", "setting": "eye [7]", "value": "improve"}, {"measurement": "discomfort in the eye from ciclosporin composition", "setting": "eye [7]; post corneal transplant", "value": "significantly reduce"}, {"measurement": "associated redness", "setting": "eye [8]; allergic eye disease, eye-drop containing 0.5% w/v tramadol, versus saline drops alone", "value": "improved with time faster than for the conventional treatment with saline drops alone"}, {"measurement": "itchiness", "setting": "eye [8]; allergic eye disease, person, eye-drop containing 0.5% w/v tramadol", "value": "improved within a few minutes"}, {"measurement": "results in allergic eye disease (itchiness, redness)", "setting": "eye [8]; eye-drop containing 1.0% w/v tramadol, compared with 0.5% w/v", "value": "even more rapid and effective results"}]}, {"smiles": "CC[C@@H]1C(=O)OC[C@@H]1Cc1cncn1C", "note": "[pilocarpine]", "values": [{"measurement": "effectiveness in constriction of the pupil", "setting": "eye [3]; 0.5% w/v pilocarpine administered promptly after or in conjunction with tramadol", "value": "as effective as 1% w/v pilocarpine administered without tramadol present"}]}]}
